What was measured:
[1] = system: Enterococcus faecium MDR Van A ATCC 51559; assay: MIC assay, E. faecium MDR Van A ATCC 51559; type: cell-based; settings: 24 h incubation, visual reading
Procedure, shortened: (§1)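 Overnight MHB cultures at 37° C were diluted 40-fold and grown 2-3 hrs to mid-log, then added at 5×10e5 CFU/mL to twofold compound dilutions (8 to 0.003 μg/ml). Plates were incubated 24 h at 37° C and MIC scored by eye.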

[2] = system: MRSA (Strain ATCC 43300); assay: Murine thigh infection model (MRSA); type: in vivo, Staphylococcus aureus; settings: neutropenic CD1 mice
Description: Summary: Adult (8 week old) female CD1 mice were made neutropenic by two injections of cyclophosphamide 4 days and 1 day prior to infection. An inoculum of 10^5 cfu MRSA (Strain ATCC 43300) was injected intramuscularly into both left and right thighs of all mice. […] After an additional two hours, a 50 μL sample of blood was obtained from the tail bleed to analyse for presence of antibiotic compound. […] Thighs were then removed, weighed and homogenised in a fixed volume of saline. The homogenate solution was filtered, diluted and seeded onto agar plates, which were incubated overnight at 37° C. Colony counts were used to establish the cfu in the thigh homogenates, the cfu/thigh, and the cfu/g of thigh.
Compound preparation: Cyclophosphamide monohydrate (Sigma) was dissolved in sterile saline to a concentration of 30 mg/mL. Likewise, vancomycin (Sigma) and MCC compounds were also dissolved in sterile saline to a final concentration of 60 mg/mL and 18.5 mg/mL respectively. All compounds were prepared in low binding Eppendorf tubes and kept at −20° C. until used.
In vivo experimental assay: Eight week old female outbred CD1 mice (UQBR-AIBN) were rendered neutropenic by injecting two doses of cyclophosphamide intraperitoneally 4 days (150 mg/kg) and 1 day (100 mg/kg) prior to experimental infection. The infection model using MRSA was established by intramuscular injection of 50 μL of early-log-phase bacterial MRSA suspension (around 2×10^6 cfu/mL) in saline into both thigh muscles. […] Untreated animals received equivalent volume of saline (Baxter). The mice were monitored for signs of normal behaviour (i.e. grooming, eating, drinking, sleeping, and alertness) during and following dosing. Two hours after saline/antibiotic treatment, 0.05 mL of blood was collected by tail incision. 24 hours after MRSA infection, mice were euthanized and blood collected from the heart by cardiac puncture (saline group) or by tail incision (Vancomycin and MCC compound treated groups) as outlined in FIG. 1. For each mouse, both thighs were collected aseptically by cutting the leg at the hip and knee, placed in 10 mL of cold sterile saline and the individual weight of each thigh recorded.
Preparation of injectable MRSA solution: An MRSA subculture bacterial isolate (ATCC43300) was taken from the storage at −80° C. and freshly seeded on agar plates for overnight (O/N) growth. From the O/N culture preparation, a single colony was diluted into 10-12 mL of Mueller Hinton broth (MHB) and incubated O/N at 37° C. A log-phase subculture was obtained by adding 100 μL of O/N subculture in 10 mL MHB and incubated for a further 2-3 hours. Finally, the OD600 value of the bacterial suspension was determined and the colony forming units per millilitre (cfu/mL) extrapolated. A full dilution of the bacterial cell suspension in saline was achieved by washing (3220×g for 10 min) and the OD600 in saline determined. The suspension was then diluted out accordingly in order to achieve a 2×10^6 cfu/mL solution (10^5 cfu in 50 μL/thigh).
Thus, 10 μL of the injectable MRSA suspension was diluted down to 10-1000 fold, each dilution plated out onto agar plates and incubated at 37° C. for 24 hours.
Thigh homogenates and CFU determination: Thighs were homogenized at 20,000 rpm for 15 seconds using a Polytron MR2500E using a […] probe (all Kinematica).

[3] = system: Streptococcus pneumoniae MDR ATCC 700677; assay: MIC assay, S. pneumoniae MDR ATCC 700677; type: cell-based; settings: 24 h incubation, visual reading
Procedure, shortened: as §1

[4] = system: Staphylococcus aureus MRSA ATCC 43300; assay: MIC assay, S. aureus MRSA ATCC 43300; type: cell-based; settings: 24 h incubation, visual reading
Procedure, shortened: as §1

[5] = single subcutaneous dose 10 mg/kg
[6] = single subcutaneous dose 25 mg/kg
[7] = single subcutaneous dose 50 mg/kg

SMILES | Minimum Inhibitory Concentration (MIC) E. faecium ATCC51559 [1] | Average Reduction log Δcfu MRSA/thigh after 26 h ([2]; single subcutaneous dose 5 mg/kg) | Average Reduction log Δcfu MRSA/thigh after 26 h [2, 5] | Average Reduction log Δcfu MRSA/thigh after 26 h [2, 6] | Minimum Inhibitory Concentration (MIC) S. pneumoniae ATCC 700677 [3] | Minimum Inhibitory Concentration (MIC) Staph. aureus ATCC43300 [4] | Average Reduction log Δcfu MRSA/thigh after 26 h [2, 7]
CCCCCCCCCCC(=O)N[C@@H](CCCCN)C(=O)N[C@@H](CCCCN)C(=O)N[C@@H](CCCCNC(=O)[C@H]1NC(=O)[C@H]2NC(=O)[C@H](NC(=O)[C@@H]3NC(=O)[C@H](CC(N)=O)NC(=O)[C@H](NC(=O)[C@@H](CC(C)C)NC)[C@H](O)c4ccc(c(Cl)c4)Oc4cc3cc(c4O[C@@H]3O[C@H](CO)[C@@H](O)[C@H](O)[C@H]3O[C@H]3C[C@](C)(N)[C@H](O)[C@H](C)O3)Oc3ccc(cc3Cl)[C@H]2O)c2ccc(O)c(c2)-c2c(O)cc(O)cc21)C(=O)O [MCC_000174] | x (x = >4) | xxx (xxx = 4-6) | xxx (xxx = 4-6) | xxx (xxx = 4-6) | xxxx (xxxx = 0.01-<0.1) | xxxx (xxxx = 0.01-<0.1) | 
CCCCCCCCCCC(=O)NC(CCCCN)C(=O)NC(CCCCN)C(=O)NC(CCCCNC(=O)C1NC(=O)C2NC(=O)C(NC(=O)C3NC(=O)C(CC(N)=O)NC(=O)C(NC(=O)C(CC(C)C)NC)C(O)c4ccc(c(Cl)c4)Oc4cc3cc(c4OC3OC(CO)C(O)C(O)C3OC3CC(C)(N)C(O)C(C)O3)Oc3ccc(cc3Cl)C2O)c2ccc(O)c(c2)-c2c(O)cc(O)cc21)C(N)=O (stereo not shown) [MCC_000455] | xxx (xxx = 0.1-<1) |  |  | xxx (xxx = 4-6) | xxxxx (xxxxx = <0.01) | xxxxx (xxxxx = <0.01) | 
CNC(CC(C)C)C(=O)NC1C(=O)NC(CC(N)=O)C(=O)NC2C(=O)NC3C(=O)NC(C(=O)NC(C(=O)NCCCNC(=O)C(CCCCN)NC(=O)C(CCCCN)NC(=O)CC4CCCCC4)c4cc(O)cc(O)c4-c4cc3ccc4O)C(O)c3ccc(c(Cl)c3)Oc3cc2cc(c3OC2OC(CO)C(O)C(O)C2OC2CC(C)(N)C(O)C(C)O2)Oc2ccc(cc2Cl)C1O (stereo not shown) [MCC_005363] | x (x = >4) |  |  |  | xxx (xxx = 0.1-<1) | xxx (xxx = 0.1-<1) | xxx (xxx = 4-6)
CCCCCCCCCC(=O)N[C@@H](CCCCN)C(=O)N[C@@H](CCCCN)C(=O)NCCNC(=O)[C@H]1NC(=O)[C@H]2NC(=O)[C@H](NC(=O)[C@@H]3NC(=O)[C@H](CC(N)=O)NC(=O)[C@H](NC(=O)[C@@H](CC(C)C)NC)[C@H](O)c4ccc(c(Cl)c4)Oc4cc3cc(c4O[C@@H]3O[C@H](CO)[C@@H](O)[C@H](O)[C@H]3O[C@H]3C[C@](C)(N)[C@H](O)[C@H](C)O3)Oc3ccc(cc3Cl)[C@H]2O)c2ccc(O)c(c2)-c2c(O)cc(O)cc21 [MCC_005166] | x (x = >4) |  | xxx (xxx = 4-6) |  | xxxx (xxxx = 0.01-<0.1) | xxxx (xxxx = 0.01-<0.1) | 
CNC(CC(C)C)C(=O)NC1C(=O)NC(CC(N)=O)C(=O)NC2C(=O)NC3C(=O)NC(C(=O)NC(C(=O)NCCCNC(=O)C(CCCCN)NC(=O)C(CCCCN)NC(=O)CCCOc4ccccc4)c4cc(O)cc(O)c4-c4cc3ccc4O)C(O)c3ccc(c(Cl)c3)Oc3cc2cc(c3OC2OC(CO)C(O)C(O)C2OC2CC(C)(N)C(O)C(C)O2)Oc2ccc(cc2Cl)C1O (stereo not shown) [MCC_005365] | x (x = >4) |  |  |  | xxx (xxx = 0.1-<1) | xxx (xxx = 0.1-<1) | xx (xx = 2-4)
CCCCCCCCCC(=O)N[C@@H](CCCCN)C(=O)N[C@@H](CCCCN)C(=O)NCCCNC(=O)[C@H]1NC(=O)[C@H]2NC(=O)[C@H](NC(=O)[C@@H]3NC(=O)[C@H](CC(N)=O)NC(=O)[C@H](NC(=O)[C@@H](CC(C)C)NC)[C@H](O)c4ccc(c(Cl)c4)Oc4cc3cc(c4O[C@@H]3O[C@H](CO)[C@@H](O)[C@H](O)[C@H]3O[C@H]3C[C@](C)(N)[C@H](O)[C@H](C)O3)Oc3ccc(cc3Cl)[C@H]2O)c2ccc(O)c(c2)-c2c(O)cc(O)cc21 [MCC_005084] | xx (xx = 1-4) |  | xxx (xxx = 4-6) |  | xxxx (xxxx = 0.01-<0.1) | xxxx (xxxx = 0.01-<0.1) | 
CCCCCCCCCC(=O)N[C@@H](CCCCN)C(=O)N[C@@H](CCCCN)C(=O)N1CCC(CNC(=O)[C@H]2NC(=O)[C@H]3NC(=O)[C@H](NC(=O)[C@@H]4NC(=O)[C@H](CC(N)=O)NC(=O)[C@H](NC(=O)[C@@H](CC(C)C)NC)[C@H](O)c5ccc(c(Cl)c5)Oc5cc4cc(c5O[C@@H]4O[C@H](CO)[C@@H](O)[C@H](O)[C@H]4O[C@H]4C[C@](C)(N)[C@H](O)[C@H](C)O4)Oc4ccc(cc4Cl)[C@H]3O)c3ccc(O)c(c3)-c3c(O)cc(O)cc32)CC1 [MCC_005489] | xx (xx = 1-4) |  | xxx (xxx = 4-6) |  | xxxx (xxxx = 0.01-<0.1) | xxxx (xxxx = 0.01-<0.1) | 
CCCCCCCCCC(=O)N[C@@H](CCCCN)C(=O)NCCNC(=O)[C@H]1NC(=O)[C@H]2NC(=O)[C@H](NC(=O)[C@@H]3NC(=O)[C@H](CC(N)=O)NC(=O)[C@H](NC(=O)[C@@H](CC(C)C)NC)[C@H](O)c4ccc(c(Cl)c4)Oc4cc3cc(c4O[C@@H]3O[C@H](CO)[C@@H](O)[C@H](O)[C@H]3O[C@H]3C[C@](C)(N)[C@H](O)[C@H](C)O3)Oc3ccc(cc3Cl)[C@H]2O)c2ccc(O)c(c2)-c2c(O)cc(O)cc21 [MCC_005162] | xx (xx = 1-4) |  | xxx (xxx = 4-6) |  | xxxx (xxxx = 0.01-<0.1) | xxxx (xxxx = 0.01-<0.1) | 
CCCCCCCCCCC(=O)N[C@@H](CCCCN)C(=O)N[C@@H](CCCCN)C(=O)NCCCNC(=O)[C@H]1NC(=O)[C@H]2NC(=O)[C@H](NC(=O)[C@@H]3NC(=O)[C@H](CC(N)=O)NC(=O)[C@H](NC(=O)[C@@H](CC(C)C)NC)[C@H](O)c4ccc(c(Cl)c4)Oc4cc3cc(c4O[C@@H]3O[C@H](CO)[C@@H](O)[C@H](O)[C@H]3O[C@H]3C[C@](C)(N)[C@H](O)[C@H](C)O3)Oc3ccc(cc3Cl)[C@H]2O)c2ccc(O)c(c2)-c2c(O)cc(O)cc21 [MCC_000344] | xx (xx = 1-4) |  |  | xxx (xxx = 4-6) | xxxx (xxxx = 0.01-<0.1) | xxxx (xxxx = 0.01-<0.1) | 
CNC(CC(C)C)C(=O)NC1C(=O)NC(CC(N)=O)C(=O)NC2C(=O)NC3C(=O)NC(C(=O)NC(C(=O)NCCCNC(=O)C(CCCCN)NC(=O)C(CCCCN)NC(=O)c4ccc(Cl)cc4)c4cc(O)cc(O)c4-c4cc3ccc4O)C(O)c3ccc(c(Cl)c3)Oc3cc2cc(c3OC2OC(CO)C(O)C(O)C2OC2CC(C)(N)C(O)C(C)O2)Oc2ccc(cc2Cl)C1O (stereo not shown) [MCC_005362] | xx (xx = 1-4) |  | x (x = 0-2) |  | xxx (xxx = 0.1-<1) | xxx (xxx = 0.1-<1) | xxx (xxx = 4-6)

— patent US10947271B2, “Antibacterial agents” (THE UNIVERSITY OF QUEENSLAND, priority 2014, dated 2021)
